Test results: ChEMBL document CHEMBL4483862, “Open-source discovery of chemical leads for next-generation chemoprotective antimalarials” (2018)

System: Plasmodium berghei
Assay: Luciferase/luciferin-expressing antifolate-resistant parasites were used to infect a culture of HepG2 cells that were pre-incubated with compounds. Infected hepatocytes emit light due to the luciferase reaction. Assay results are presented as the percent inhibition of light emission compared to control. […]
Type: functional
Details: sporozoite; for IC90: read-out: LUCIFERASE INFECTION ASSAY - IC90

Row | SMILES | IC90 [µM] | other results
1 | NC(=O)C(C(=O)/C=C/c1ccc(Cl)cc1)=C1SCCS1 | 7.51 | IC50 (HEPG2TOX_HILL_SLOPE 2.58, HEPG2TOX_R_SQUARED 0.837, PBLUC_HILL_SLOPE 4.23, PBLUC_R_SQUARED 0.508, read-out: LUCIFERASE INFECTION ASSAY - IC50): 4.47 µM
2 | Cc1ccc(CSc2nccc(-c3c(C)nc4ccccn34)n2)cc1 | > 9.53 | IC50 (HEPG2TOX_HILL_SLOPE 2.56, HEPG2TOX_R_SQUARED 0.969, PBLUC_HILL_SLOPE 4.1, PBLUC_R_SQUARED 0.204, read-out: LUCIFERASE INFECTION ASSAY - IC50): 6.17 µM
3 | N#C/C(=N/Nc1ccc(OC(F)(F)F)cc1)C(N)=S | 4.35 | IC50 (HEPG2TOX_HILL_SLOPE 2.59, HEPG2TOX_R_SQUARED 0.943, PBLUC_HILL_SLOPE 11.1, PBLUC_R_SQUARED 0.624, read-out: LUCIFERASE INFECTION ASSAY - IC50): 3.57 µM
4 | Oc1c(-c2cc(C(F)(F)F)[nH]n2)ccc2ccccc12 | 4.29 | IC50 (HEPG2TOX_HILL_SLOPE 2.58, HEPG2TOX_R_SQUARED 0.339, PBLUC_HILL_SLOPE 10.9, PBLUC_R_SQUARED 0.613, read-out: LUCIFERASE INFECTION ASSAY - IC50): 3.51 µM
5 | COc1cccc(-c2ccc3ncc(-c4ccc5c(c4)OCO5)n3n2)c1 | 9 | IC50 (HEPG2TOX_HILL_SLOPE 2.64, HEPG2TOX_R_SQUARED 0.763, PBLUC_HILL_SLOPE 3.7, PBLUC_R_SQUARED 0.498, read-out: LUCIFERASE INFECTION ASSAY - IC50): 4.97 µM
6 | CC1CCN(Cc2csc(NC(=O)c3ccc(SCc4cscn4)cc3)n2)CC1 | 9.76 | IC50 (HEPG2TOX_HILL_SLOPE 2.61, HEPG2TOX_R_SQUARED 0.966, PBLUC_HILL_SLOPE 9.48, PBLUC_R_SQUARED 0.381, read-out: LUCIFERASE INFECTION ASSAY - IC50): 7.74 µM
7 | C=CCN(c1ccccc1OC)S(=O)(=O)c1ccc(Cl)c(C(=O)Nc2nc3ccccc3[nH]2)c1 | > 10 | IC50 (HEPG2TOX_HILL_SLOPE 2.58, HEPG2TOX_R_SQUARED 0.695, PBLUC_HILL_SLOPE 1.17, PBLUC_R_SQUARED 0.361, read-out: LUCIFERASE INFECTION ASSAY - IC50): 2.23 µM
8 | Cc1ccc(-c2nn(-c3ncc(Cl)cc3Cl)c(=O)c3ccccc23)cc1 | > 10 | IC50 (HEPG2TOX_HILL_SLOPE 2.58, HEPG2TOX_R_SQUARED 0.712, read-out: LUCIFERASE INFECTION ASSAY - IC50): > 10 µM
9 | O=C(NNC(=O)c1cnc2ccccc2n1)c1ccccc1 | 9.09 | IC50 (HEPG2TOX_HILL_SLOPE 2.59, HEPG2TOX_R_SQUARED 0.855, PBLUC_HILL_SLOPE 4.42, PBLUC_R_SQUARED 0.625, read-out: LUCIFERASE INFECTION ASSAY - IC50): 5.53 µM
10 | COC(=O)c1ccc(CNC(=O)NCCN2c3ccccc3CCC2C)cc1 (configuration not stated) | 3.88 | IC50 (HEPG2TOX_HILL_SLOPE 2.63, HEPG2TOX_R_SQUARED 0.63, PBLUC_HILL_SLOPE 12, PBLUC_R_SQUARED 0.668, read-out: LUCIFERASE INFECTION ASSAY - IC50): 3.23 µM
11 | Cc1ccc(-n2nnnc2SCc2c(F)cccc2Cl)c(C)c1 | > 9.46 | IC50 (HEPG2TOX_HILL_SLOPE 2.61, HEPG2TOX_R_SQUARED 0.917, PBLUC_HILL_SLOPE 6.38, PBLUC_R_SQUARED 0.299, read-out: LUCIFERASE INFECTION ASSAY - IC50): 8.85 µM
12 | Cc1ccc(S(=O)(=O)NN(C)c2nc3ccccc3nc2C(F)(F)F)cc1 | 3.01 | IC50 (HEPG2TOX_HILL_SLOPE 2.57, HEPG2TOX_R_SQUARED 0.987, PBLUC_HILL_SLOPE 18.2, PBLUC_R_SQUARED 0.483, read-out: LUCIFERASE INFECTION ASSAY - IC50): 2.66 µM
13 | Fc1ccc(-c2csc3ncnc(Sc4nnnn4-c4ccccc4)c23)cc1 | 3.53 | IC50 (HEPG2TOX_HILL_SLOPE 2.6, HEPG2TOX_R_SQUARED 0.978, PBLUC_HILL_SLOPE 15.6, PBLUC_R_SQUARED 0.498, read-out: LUCIFERASE INFECTION ASSAY - IC50): 3.07 µM
14 | O=C(C1=NNCC1c1ccccc1)c1cc2ccccc2c2ccccc12 (configuration not stated) | > 9.42 | IC50 (HEPG2TOX_HILL_SLOPE 2.61, HEPG2TOX_R_SQUARED 0.965, PBLUC_HILL_SLOPE 1.24, PBLUC_R_SQUARED 0.535, read-out: LUCIFERASE INFECTION ASSAY - IC50): 3.17 µM
15 | O=C(c1c[nH]c(-c2ccnc(N3CCCC3)c2)c1)c1ccccc1O | 7.71 | IC50 (HEPG2TOX_HILL_SLOPE 2.58, 1.58, HEPG2TOX_R_SQUARED 0.907, 0.987, PBLUC_HILL_SLOPE 3.48, 1.53, PBLUC_R_SQUARED 0.289, 0.786, read-out: LUCIFERASE INFECTION ASSAY - IC50): 3.06 µM
16 | Cc1ccccc1-c1cn2c(-c3cccc(O)c3)cnc2cn1 | 8.68 | IC50 (HEPG2TOX_HILL_SLOPE 2.6, HEPG2TOX_R_SQUARED 0.936, PBLUC_HILL_SLOPE 3.74, PBLUC_R_SQUARED 0.417, read-out: LUCIFERASE INFECTION ASSAY - IC50): 4.82 µM

Row | SMILES | IC90 [µM] | other results
17 | O=C(COC(=O)c1cc(-c2ccccc2)c(N2CCOCC2)s1)NCc1cccs1 | 7.35 | IC50 (HEPG2TOX_HILL_SLOPE 2.63, HEPG2TOX_R_SQUARED 0.904, PBLUC_HILL_SLOPE 1.69, PBLUC_R_SQUARED 0.47, read-out: LUCIFERASE INFECTION ASSAY - IC50): 2 µM
18 | CCC(C)NC(=O)c1c(NC(=O)c2ccc(F)c(Cl)c2)nc2ccc(C)cn12 (configuration not stated) | 5.96 | IC50 (HEPG2TOX_HILL_SLOPE 2.61, HEPG2TOX_R_SQUARED 0.962, PBLUC_HILL_SLOPE 2.74, PBLUC_R_SQUARED 0.471, read-out: LUCIFERASE INFECTION ASSAY - IC50): 2.67 µM
19 | COc1ccc(CN2CCN(c3ncc(C(=O)Nc4ccc5c(c4)OCO5)s3)C2=O)cc1 | 4.14 | IC50 (HEPG2TOX_HILL_SLOPE 2.58, HEPG2TOX_R_SQUARED 0.97, PBLUC_HILL_SLOPE 17.4, PBLUC_R_SQUARED 0.0851, read-out: LUCIFERASE INFECTION ASSAY - IC50): 3.65 µM
20 | O=C1C(=O)N(CN2CCc3sccc3C2c2ccccc2)c2ccc(F)cc21 (configuration not stated) | 2.51 | IC50 (HEPG2TOX_HILL_SLOPE 2.62, HEPG2TOX_R_SQUARED 0.103, PBLUC_HILL_SLOPE 2.21, PBLUC_R_SQUARED 0.632, read-out: LUCIFERASE INFECTION ASSAY - IC50): 0.929 µM
21 | C/C(=N\NC(=S)Nc1ccc(Cl)cc1)c1ccn[nH]1 | 4.51 | IC50 (HEPG2TOX_HILL_SLOPE 2.63, HEPG2TOX_R_SQUARED 0.844, PBLUC_HILL_SLOPE 3.05, PBLUC_R_SQUARED 0.682, read-out: LUCIFERASE INFECTION ASSAY - IC50): 2.19 µM
22 | Cc1onc(-c2ccc(Cl)cc2Cl)c1-c1csc(Nc2cc(C(F)(F)F)cc(C(F)(F)F)c2)n1 | 2.73 | IC50 (HEPG2TOX_HILL_SLOPE 2.62, HEPG2TOX_R_SQUARED 0.945, PBLUC_HILL_SLOPE 2.66, PBLUC_R_SQUARED 0.706, read-out: LUCIFERASE INFECTION ASSAY - IC50): 1.19 µM
23 | COc1ccc(-c2csc3ncnc(NCc4ccc(-n5ccnc5)nc4)c23)cc1 | 10 | IC50 (HEPG2TOX_HILL_SLOPE 2.62, HEPG2TOX_R_SQUARED 0.957, PBLUC_HILL_SLOPE 10.9, PBLUC_R_SQUARED 0.671, read-out: LUCIFERASE INFECTION ASSAY - IC50): 8.17 µM
24 | O=S(=O)(Nc1cc(C(F)(F)F)cc(C(F)(F)F)c1)c1cc(Cl)ccc1Cl | > 7.53 | IC50 (HEPG2TOX_HILL_SLOPE 2.59, HEPG2TOX_R_SQUARED 0.793, PBLUC_HILL_SLOPE 6.41, PBLUC_R_SQUARED 0.152, read-out: LUCIFERASE INFECTION ASSAY - IC50): 6.18 µM
25 | COc1ccc(CNc2ccc3ncc(-c4ccc(OC)c(OC)c4)n3n2)cc1 | 4.78 | IC50 (HEPG2TOX_HILL_SLOPE 2.6, HEPG2TOX_R_SQUARED 0.69, PBLUC_HILL_SLOPE 12.3, PBLUC_R_SQUARED 0.459, read-out: LUCIFERASE INFECTION ASSAY - IC50): 4 µM
26 | c1ccc(-n2ncc3c(N4CCCC4c4ccc5c(c4)OCCO5)ncnc32)cc1 (configuration not stated) | > 10 | IC50 (HEPG2TOX_HILL_SLOPE 2.6, HEPG2TOX_R_SQUARED 0.193, PBLUC_HILL_SLOPE 3.44, PBLUC_R_SQUARED 0.735, read-out: LUCIFERASE INFECTION ASSAY - IC50): 7.29 µM
27 | O=C(Nc1ccc(-c2nc3ccccc3[nH]2)cc1)c1cccc(S(=O)(=O)NC2CC2)c1 | 3 | IC50 (HEPG2TOX_HILL_SLOPE 2.58, HEPG2TOX_R_SQUARED 0.64, PBLUC_HILL_SLOPE 5.30, 5.83, PBLUC_R_SQUARED 0.508, 0.438, read-out: LUCIFERASE INFECTION ASSAY - IC50): 2.03 µM
28 | CCCCc1ccc2nc(NC(=O)c3cccnc3-n3cncn3)sc2c1 | > 10 | IC50 (HEPG2TOX_HILL_SLOPE 2.58, HEPG2TOX_R_SQUARED 0.943, PBLUC_HILL_SLOPE 1.45, PBLUC_R_SQUARED 0.435, read-out: LUCIFERASE INFECTION ASSAY - IC50): 4 µM
29 | CN(C)c1nc(N)nc(CSc2nc(N)c3c4c(sc3n2)CCCC4)n1 | > 10 | IC50 (HEPG2TOX_HILL_SLOPE 2.63, HEPG2TOX_R_SQUARED 0.627, PBLUC_HILL_SLOPE 2.91, PBLUC_R_SQUARED 0.214, read-out: LUCIFERASE INFECTION ASSAY - IC50): 9.21 µM
30 | CCOC(=O)c1c(C)[nH]c(C(=O)COC(=O)Cn2[nH]c(=O)c3ccccc3c2=O)c1C | > 10 | IC50 (HEPG2TOX_HILL_SLOPE 2.60, 1.21, HEPG2TOX_R_SQUARED 0.645, 0.988, read-out: LUCIFERASE INFECTION ASSAY - IC50): > 10 µM
31 | c1cncc(CCNc2nccn3c(-c4ccc5ccccc5c4)cnc23)c1 | 5.14 | IC50 (HEPG2TOX_HILL_SLOPE 2.6, HEPG2TOX_R_SQUARED 0.953, PBLUC_HILL_SLOPE 75.6, PBLUC_R_SQUARED 0.403, read-out: LUCIFERASE INFECTION ASSAY - IC50): 4.99 µM
